Patent US20050220726A1, “Use of sugar esters in cosmetic and/or pharmaceutical preparations” (priority 2003, published 2005)

Key:
Assay type in all cases: cell-based
[1] = system: human leukaemic granulocytes; test: Anti-inflammatory activity: respiratory burst of granulocytes (zymosan, luminol); conditions: + stimulation (zymosan), blank + stimulation = 100
Source text: In the course of cutaneous inflammation, leucocytes, such as the polymorphonuclear neutrophilic granulocytes (PMNs) for example, are stimulated by peptides, such as cytokines for example, to emit messenger substances, such as leucotriene for example, which are released from activated or necrotic cells in the dermis. These activated PMNs release not only pro-inflammatory cytokinins, leucotrienes and proteases, but also ROS, such as superoxides and hypochlorite anions for example, of which the function is to destroy penetrated pathogenic germs or fungi. This activity of the PMNs during the inflammation is known as so-called respiratory burst. To investigate to what extent the test extracts can prevent or reduce the respiratory burst, a cell line of human leukaemic granulocytes of these PMNs was incubated together with the test substances at 37° C. and 5% by vol. CO2. After the respiratory burst had been initiated by addition of a yeast extract (zymosan) to the cell solution, the release of superoxide anions was determined through their reaction with luminol.

[2] = system: human hair follicles; test: Inhibition of hair growth, in vitro cultivated hair follicles; conditions: conc. 0.01 % w/v
Procedure: The hair-growth-inhibiting effect of the sugar esters was determined by a method using in vitro cultivated human hair follicles in a growth medium. The growth of the hair follicles was tested in the presence and absence of fructose caprate. To this end, the hair follicles were incubated for 7 days at 37° C./5% CO2. The length of the cultivated hair follicles was recorded after 3 days and 7 days of cultivation. In a comparison example, the growth medium additionally contained 30 ng/ml IGF-1 insulin-like growth factor), a cytokine which stimulates hair follicle growth.
Each of the tests was carried out with 10 hair follicles of a donor (5 donors in all).
The results are set out in Table 9 and represent the mean values of the 50 hair follicles.

[3] = system: Staphylococcus epidermidis; test: Agar diffusion method, inhibition zones; conditions: filter paper with 20 μl test substance; 18 to 24 h at 37° C.
Procedure: (§1) The antibacterial activity of the test substances was tested by the diffusion method on agar plates or the agar dilution method. In this method, a round filter paper of defined diameter is first impregnated with the test solution and then applied to the surface of an agar plate inoculated beforehand with the test microorganisms. The size of the inhibition zones is then determined after defined times. In particular, it is possible by this method to determine the MIC (Minimum Inhibitory Concentration) as the lowest concentration of test substance with which complete inhibition of the microorganisms can be obtained.
(§2) Agar diffusion method. The inoculum was prepared using a fresh culture in a stationary growth phase (after ca. 18-24 h) in a BHI solution (brain-heart Infusion). The bacterial suspension was adjusted to 0.5 MacFarland units, corresponding to 1.5 10^8 colony-forming units (cfu)/ml; the suspension was then diluted with a sodium chloride solution (1:100) to adjust a value of 1.5 10^6 cfu/ml. Mueller-Hinton agar (Staphylococcus epidermidis, Staphylococcus aureus) and Wilkins-Chalgrens agar containing 5% by weight sheep's blood (Propionibacterium acnes) were then sterilized for 15 mins. at 121° C. and then placed in Petri dishes. 2 to 4 ml of the bacterial suspension were then added to the Petri dishes, followed by drying at room temperature. The filter papers were impregnated with 20 μl of the test substances and applied to the surface of the agar plates. The inoculated Petri dishes were incubated for 18 to 24 h at 37° C. (the Petri dishes containing Propionibacterium acnes under anaerobic conditions) and the antimicrobial activity was then determined by determination of the growth inhibition zones. The results are set out in Table 10 and represent the diameters of the inhibition zones in mm.

[4] = system: Propionibacterium acnes; test: Agar diffusion method, inhibition zones; conditions: filter paper with 20 μl test substance; 18 to 24 h at 37° C., anaerobic
Procedure: as §1, §2

[5] = system: Staphylococcus aureus; test: Agar diffusion method, inhibition zones; conditions: filter paper with 20 μl test substance; 18 to 24 h at 37° C.
Procedure: as §1, §2

[6] = system: Staphylococcus aureus; test: Agar dilution method (MIC determination); conditions: 18 to 24 h at 37° C.
Procedure: as §1, with “obtained. Agar dilution method (MIC determination). Various agars were prepared as described above, test substances were added in various concentrations, homogenized and dried. The Petri dishes were then inoculated with quantities of 2 μl of the bacterial suspension. After each drying step the Petri dishes were incubated for 18 to 24 h at 37° C. […] The results represent the averages of double determinations.” for “obtained.”

[7] = system: human keratinocytes; test: Protecting cells against UVB radiation (cell DNA, LDH and PGE2 release); conditions: + UV-B 50 mJ/cm^2; for Cell DNA: blank = 100, control + UV-B = 33; for LDH released / PGE2 released: control + UV-B = 100
Procedure: UVB was selected as the stress factor because the rays produce cutaneous inflammation (erythemas, oedemas) by activating enzymes that release arachidonic acid, such as phospholipase A2 (PLA2) for example. […] The influence of UVB rays on keratinocytes was determined in vitro through the release of cytoplasmatic enzymes, such as LDH (lactate dehydrogenase) for example, which runs parallel to the cell damage and the formation of PGE2. […] The quantity of keratinocytes was determined after trypsination via a cell counter while the LDH concentration was enzymatically determined. The results are set out in Table 4, where they are expressed as the activity in %-rel. against a standard, and represent the mean value of two test series involving double determination.

[8] = system: melanocytes (B16 cell line); test: Inhibition of melanin synthesis in B16 melanocytes; conditions: 3 days, blank value = 100
Procedure: Melanin is the pigment responsible for the color of the skin and hair. It is formed in special organelles, the melanosomes, which occur in the melanocytes of the basal layer of the human epidermis. The biosynthesis of melanin begins with the amino acid tyrosine which is oxidized to DOPA (dihydroxyphenylalanine) in the presence of tyrosinase. The DOPA then polymerizes to melanin. […] After incubation for 3 days at 37° C./5% CO2, the nutrient medium was replaced by a solution containing the test substances in various concentrations. After incubation for another 3 days, the cell protein content (Bradford's method) and the content of synthesized melanin were determined through the optical density of the homogenizate at 475 nm. The results are expressed in % against a blank value and are set out in Table 7.

Fructose caprate
Cell counts ([1]; conc. 0.003 % w/v): 97 %-rel.
ROS released ([1]; conc. 0.003 % w/v): 87 %-rel.
Cell counts ([1]; conc. 0.01 % w/v): 60 %-rel.
ROS released ([1]; conc. 0.01 % w/v): 5 %-rel.
Hair follicle growth, increase Day 3/day 0 ([2]; + IGF (30 ng/ml IGF-1), control +21%): +15%
Hair follicle growth, increase Day 7/day 0 ([2]; + IGF (30 ng/ml IGF-1), control +45%): +25%
Hair follicle growth, increase Day 3/day 0 ([2]; without IGF, control +15%): +12%
Hair follicle growth, increase Day 7/day 0 ([2]; without IGF, control +32%): +21%
Inhibition zones, Staphylococcus epidermidis [3]: 9 mm
Inhibition zones, Propionibacterium acnes [4]: 14 mm
Inhibition zones, Staphylococcus aureus [5]: 10 mm
MIC, Staphylococcus aureus [6]: 1.25 mg/mL
Cell DNA ([7]; conc. 0.001 % w/v): 32 %-rel.
LDH released ([7]; conc. 0.001 % w/v): 68 %-rel.
PGE2 released ([7]; conc. 0.001 % w/v): 35 %-rel.
Cell DNA ([7]; conc. 0.003 % w/v): 140 %-rel.
LDH released ([7]; conc. 0.003 % w/v): 0 %-rel.
PGE2 released ([7]; conc. 0.003 % w/v): 0 %-rel.
Cell melanin ([8]; conc. 0.003 % w/v): 54 %-rel.
Cell proteins ([8]; conc. 0.003 % w/v): 108 %-rel.
Cell melanin ([8]; conc. 0.006 % w/v): 30 %-rel.
Cell proteins ([8]; conc. 0.006 % w/v): 80 %-rel.
